Assay results: patent US6511971B1, “Substituted perhalogenated phthalocyanines” (Brown University Research Foundation, priority 1998, dated 2003)

Experiments:
[1] = system: EMT-6 mouse mammary tumor cells; test: In vitro phototoxicity: cell photo-inactivation, MTT cell survival assay; type: cell-based; conditions: EMT-6 cells
Experimental: Chremophor emulsions were prepared and cell photo inactivation was determined by J. E. van Lier and colleagues at the University of Sherbrooke, Sherbrooke, QC, Canada, in accordance with published procedures. (Alleman et al. Int. J. Cancer, 72:289-294 (1997))
Chremophor EL (CRM) was obtained from BASF (Toronto, Canada). All solvents were of analytical grade, and all other chemicals were commercially available products. Zinc octakis (perfluoroisopropyl) perfluorophthalocyanine (“ZnPcF64”, 2.5 mg) was first dissolved in methanol (2 mL). 500 μL of Chremophor and 150 μL of propane diol were added to the solution. The methanol was evaporated by rotory evaporation at room temperature. The residue was diluted with PBS to 5 mL and sterile filtered (0.2 μm). […]
After incubation, cells were rinsed twice with PBS, refed with 100 μl Waymouth 15% FBS and exposed to red light. […] The fluence rate calculated over the absorbance peaks of the dyes (660-700 nm) was 10 mW cm^−2, for a total fluence of 0.6-36 J/cm^2. […] Plates were incubated overnight at 37° C., after which the absorbance was read at 595 nm by means of a microplate reader (BioRad, Mississauga, Canada). The average absorbance of the blank wells in which cells were omitted was subtracted from the readings of the other wells. The average absorbance of the control cells, which were incubated with dye-free Waymouth 1% FBS, represents 100% cell survival. […]

[2] = system: EMT-6 tumor; test: In vivo phototoxicity: photodynamic therapy in murine EMT-6 tumor model; set-up: species or system BALB/c mice; conditions: CRM emulsion
Experimental: The in vivo phototoxicity effects of ZnPcF64 on mouse tumors were determined by J. E. van Lier and colleagues at the University of Sherbrooke, Sherbrooke, QC, Canada, in accordance with published procedures. (Alleman et al. Int. J. Cancer, 72:289-294 (1997))
Experiments were performed on male BALB/c mice (16-22 g) and female Fisher CDF (F-344) rats (approx. 150 g) (Charles River, Montreal, Canada) following a protocol approved by the Canadian Council on Animal Care and an in-house ethics committee. Animals were allowed free access to water and food throughout the course of the experiments. Before tumor implantation, hair on the hind legs and back of the mice was removed by shaving and chemical depilating (Nair®, Whitehall, Mississauga, Canada). A tumor was implanted on each hind thigh by intradermal injection of 2 times 10^5 EMT-6 cells suspended in 0.05 ml Waymouth's growth medium. Biodistribution and photodynamic activity of ZnPcF64 were assayed using a murine EMT-6 tumor model (Allémann et al. Int. J. Cancer, 72:289-294 (1997)).
For PDT studies, mice were used 6-8 days after tumor inoculation (tumor size: 3-5 mm diameter, 2-3 mm thickness). At this time point, the tumor is sufficiently large to be measured, while therapeutic response can be observed without interference of spontaneous necrosis (Margaron et al. Anticancer Res. 16:613-620 (1996)). Animals were given an i.v. injection of ZnPcF64 formulated as a CRM emulsion at I or 2.5 μmol kg^−1 (0.2 ml), and one tumor was treated with red light 24-72 hr later, while the other tumor served as a control. Tumors were illuminated with an 8-mm diameter beam of 650-700 nm light ([…] for a total fluence of 100-400 J .cm^−2) generated by a 1,000 W Xenon lamp, equipped with a 10-cm circulating water filter and 2 glass filters (Corion LL650 and LS700, Holliston, Mass.). A positive tumor response (necrosis) was assigned to tumors which appeared macroscopically as flat and necrotic tissues within a few days after PDT (Allémann et al. Int. J Canc. 66:821-824 (1996)). […]

Zinc Octakis (perfluoroisopropyl) Perfluorophthalocyanine, Bis-acetone Solvate [ZnPcF64]
phototoxic effects ([1]; CRM emulsion at 1 and 3 μM, 1 or 24 hours incubation, red light 660-700 nm, 0.6-36 J/cm^2, any conditions): No phototoxic effects | Cell survival ([1]; highest dye concentrations and longest light exposure): 100% | tumor response after PDT ([2]; 1 μmol/kg i.v., 650-700 nm light 24-72 hr later, EMT-6 tumor in mice): complete tumor necrosis | inflammation after PDT ([2]; 1 μmol/kg i.v., 650-700 nm light, EMT-6 tumor in mice): some inflammation | outcome of treated mice (lethality) ([2]; 2.5 μmol/kg i.v., tumor-bearing mice): died of shock
